According to US8742156B2 (priority 2010, dated 2014):
Where a name gives a salt, the structure may show the parent alone.

Tested on: H1N1 virus (A/Vicotria/07159200/07 (Tamiflu-resistant strain))
Format: cell-based, Human influenza H1N1 virus
Details: for effect on viral titers of Tamiflu-resistant (Tami-R) H1N1 virus: FIG. 1, multiplicity of infection of 0.2

Q: `N=C(Nc1ccccc1)SCCCSC(=N)Nc1ccccc1` [Compound 58, Carbamimidothioic acid, phenyl-, 1,3-propanediyl ester, dihydrobromide] was tested. Which “effect on viral titers of Tamiflu-resistant (Tami-R) H1N1 virus” value did it give?
A: potent inhibitory effects

Q: And the “viral titer of Tami-R H1N1-infected cells decreased (fold)” value (FIG. 1, multiplicity of infection of 0.2, 48-hour post-infection)?
A: 4 fold

Q: Which results are given for `CCOC(=O)C1=C[C@@H](OC(CC)CC)[C@H](NC(C)=O)[C@@H](N)C1` [Tamiflu, oseltamivir, reference compound]?
A: Tami-R H1N1 viral titers decreased (%) (10 uM, multiplicity of infection of 0.2, 48-hour post-infection): 20%; effect on viral titers of Tamiflu-resistant (Tami-R) H1N1 virus: minimal effects
